Reference: EP4603481A1, “PREPARATION AND USE OF CATIONIC LIPID MATERIAL” (Nanjing Geneleap Biotechnology Co., Ltd., priority 2022, dated 2024)
Entries after “also recorded” stand apart in the source; their conditions may differ.

What was measured:
Balb/c mice [1] = test: Animal transfection of lipid nanoparticles, in vivo imaging after 12 h; conditions: for Multiple of local photon intensity in the supine position relative to MC3 / Multiple of photon intensity of the viscera in the supine position relative to MC3: Table 8, 0.1 mg/kg FFluc mRNA, 12 h; for Multiple of local photon intensity in the supine position relative to MC3: injection site; for Multiple of photon intensity of the viscera in the supine position relative to MC3: viscera (liver); for toxic and side effect on the liver: inferred from expression in the liver 12 h after administration
Description: (§1) Balb/c mice (available from Vital River Laboratory Animal Technology Co., Ltd., male, 6-8 weeks old, 20-24 g) were randomized into groups, 5 mice per group. The mice were injected the prepared lipid nanoparticles into the leg muscle at a dose of 0.1 mg/kg (calculated as to FFluc mRNA (SEQ ID NO.1)) and observed by in vivo imaging after 12 h. The injection sites on the bellies and legs of Balb/c mice were depilated, and after anesthesia, the animals were injected D-luciferin potassium salt intraperitoneally, and were observed and photographed in an IVIS living body imager (PerkinElmer, Series III), wherein the observation time of living body images was within 15 min after the injection of substrate. Table 7. Results of animal transfection efficiency of lipid nanoparticles made from different cationic lipids

Balb/c mice [2] = test: Animal transfection of lipid nanoparticles, in vivo imaging after 24 h; conditions: leg muscle injection, 0.1 mg/kg FFluc mRNA; for Multiple of total photon intensity in the supine position relative to MC3: Table 5, Balb/c mice; for Multiple of local photon intensity in the supine position relative to MC3: Table 5, injection site
Description: as §1, with “24” for “12”, “5.” for “7.”

Row | SMILES | Multiple of local photon intensity in the supine position relative to MC3 (Balb/c mice [1]; 0.1 mg/kg) | Multiple of photon intensity of the viscera in the supine position relative to MC3 (Balb/c mice [1]) | toxic and side effect on the liver (Balb/c mice [1]) | Multiple of total photon intensity in the supine position relative to MC3 (Balb/c mice [2]) | Multiple of local photon intensity in the supine position relative to MC3 (Balb/c mice [2]) | Multiple of local photon intensity in the supine position relative to MC3 (Balb/c mice [1])
1 | CCCCCCCCC(CCCCCCCC)OC(=O)CCCCC(=O)OCC(CN(C)CCN1CCN(C)CC1)OC(=O)CCCCC(=O)OC(CCCCCCCC)CCCCCCCC (stereo not drawn) [Compound 17] | equivalent; also recorded: not weaker than that of MC3 LNP | almost have no expression in the liver | completely avoid liver toxicity; also recorded: completely avoid the toxic and side effect on the liver | – | – | –
2 | CCCCCCCCC(CCCCCCCC)OC(=O)CCCCC(=O)OCC(CN(C)CCN1CCCC1)OC(=O)CCCCC(=O)OC(CCCCCCCC)CCCCCCCC (stereo not drawn) [Compound 18] | equivalent; also recorded: not weaker than that of MC3 LNP | almost have no expression in the liver | completely avoid liver toxicity; also recorded: completely avoid the toxic and side effect on the liver | – | – | –
3 | CCCCCCCCC(CCCCCC)C(=O)OCC(CN(C)CCN1CCCC1)OC(=O)C(CCCCCC)CCCCCCCC (stereo not drawn) [Compound 1] | – | – | – | 1.668 | significantly higher | not weaker than that of MC3 LNP
4 | CCCCCCCCC(CCCCCC)C(=O)OCC(CN(C)CCN1CCN(C)CC1)OC(=O)C(CCCCCC)CCCCCCCC (stereo not drawn) [Compound 2] | – | – | – | equivalent | significantly higher | not weaker than that of MC3 LNP
